What was measured:
[1] = tested on: PI3Kα-KO MEFs; assay: pAKT S473 western blot, PI3Kα-KO MEFs; assay type: cell-based, mouse; conditions: 15 min
Procedure: Unless otherwise indicated, western blotting was performed with ECL detection. For time course studies, A549 cells were seeded at 250,000 cells per well in 6-well plates in RPMI (10% FBS + 1 mM Na-Pyruvate + 1% P/S) and allowed to adhere overnight. The next day they were serum-starved for 4 h prior to treatment with 100 nM insulin or 5 μM 1938, for the indicated time (5 min to 48 h) at 37°C, 5% CO2. For 1938 titration assays in MEFs, cells were seeded at 150,000 cells per well in 6-well plates and allowed to adhere overnight. The next day they were serum-starved for 4 h prior to treatment with insulin (1 μM), 1938 (0.2 to 30 μM, final DMSO concentration of 1.5%) or inhibitors (final DMSO concentration of ≤1.5%) for 15 min at 37°C, 5% CO2. Cells were washed twice with cold PBS and lysed using cold RIPA buffer (25 mM Tris.HCl pH 7.6, 150 mM NaCl, 1% NP-40, 1% sodium deoxycholate, 0.1% SDS supplemented with protease/phosphatase inhibitor cocktail from Merck). To remove cell debris, homogenates were spun at 13,000 rpm for 15 min at 4°C and the supernatant fraction recovered. Protein concentration was determined by colorimetric assay (BCA assay, Promega). Protein extracts were resolved by SDS-PAGE, transferred to nitrocellulose membranes, and incubated overnight at 4°C with specific antibodies as follows: anti-vinculin (Sigma #V9131) and the following antibodies from Cell Signaling Technology (CST): pAKT-S473 (CST #9271), pS6-S240/244 (CST #2215), pPRAS40-T246 (CST #2640) and total S6 (CST #2317). Primary ntibodies were used at 1:1000 dilution except anti-vinculin (1:10000). Secondary antibodies are also from Cell Signalling Technology: Anti rabbit IgG, HRP linked Antibody (CST #7074S), Anti mouse IgG, HRP linked Antibody (CST #7076S). Raw and uncropped blots are shown in Supplementary Fig. 1.

[2] = tested on: PI3Kα-KO MEFs; assay: CellTiter-Glo cell assay, PI3Kα-KO MEFs; assay type: cell-based, mouse; conditions: 24h
Procedure: MEFs were seeded at 5000 cells per well in 96-well plates in DMEM supplemented with 10% FBS and 1% P/S, and allowed to attach overnight. The next day, cells were serum starved for 4 h prior to compound treatment in fresh serum-free DMEM. Compounds solubilised in DMSO were diluted 1:2 in a 12-point concentration response curve in DMSO. Intermediate plates were prepared by transferring 4 μl of compounds in DMSO into 96 μl of serum-free DMEM media. This was then used to treat cell plates by transferring 12.5 μl of solution from the intermediate plate into 87.5 μl of serum-free DMEM in the cell plates. […] Cell plates were incubated for 24 h, 48 h or 72 h at 37°C, 5% CO2, followed by determination of cell survival using the CellTiter-Glo® reagent according to manufacturer’s instructions (Promega #G7571). Endpoint luminescence was measured using CLARIOstar (BMG). Compound data were analyzed using GraphPad Prism 8.

[3] = tested on: adult rat DRG neurons; assay: Neurite outgrowth in dissociated adult rat dorsal root ganglion cultures; assay type: cell-based; conditions: 72h; BYL719 500 nM with 1938 above 10^-7 M
Description: Dissociated adult rat dorsal root ganglion (DRG) cultures were used as an in vitro model for neuroregeneration[80],[81]. DRG neurons were isolated from adult male (>250g) Wistar rats as described, with DRGs from each rat cultured separately. Following culling via schedule 1 (rising concentration of CO2), the spinal column was removed and stored in PBS on ice. Cord tissue was removed to expose the DRGs and roots in the intervertebral foramen and the DRGs removed with forceps and scalpel under a dissecting microscope (Olympus SZ40). DRGs were manually cleaned by removal of roots, capsule and capillaries with forceps and then placed in DMEM supplemented with P/S. DRGs were treated with 0.125% collagenase type IV solution at 37°C for 90 min, and then mechanically dissociated by trituration using a 1 ml pipette. The collagenase solution was removed by 2 rounds of centrifugation in complete DMEM (DMEM with 1% P/S and 10% FBS) at 400 xg for 5 min, followed by resuspension of the DRG cell pellet in complete DMEM supplemented with 0.01 mM cytosine arabinoside. DRGs were plated in 75-cm[2] flasks coated with 0.1 mg/ml poly-D-lysine and incubated at 37°C, 5% CO2. […] 9 fields per well were captured and analysed using the CSIRO Neurite Analysis 2 […] in Columbus analysis software (Perkin Elmer). […]

Compound	pAKT^S473 induction [1]	concentrations with a decrease in ATP levels (PI3Kα-independent effects) [2]	neurite outgrowth (total length of neurites) [3]
CCN1CCN(c2ccc(Nc3cc(Nc4cccc5c4N(C(C)=O)CC5)ccn3)cc2)CC1 [Compound 1938]	no pAKT^S473 signal	> 7.5 µM	doubling the total length of neurites
insulin: insulin, canonical activator of PI3Kα, used as positive control	still respond to insulin		

From publication PMC7614683, “A small molecule PI3Kα activator for cardioprotection and neuroregeneration” (Nature, 2023)
